According to patent US20140038181A1, “CHEMICALLY SUBSTITUTED THERMOSENSITIVE PROBES AND COFACTORS FOR HOT START LIGATION” (TRILINK BIOTECHNOLOGIES, priority 2011, published 2014):
In the oligonucleotide strings, read from the 5' end, every base follows the letter of its sugar. An asterisk marks phosphorothioate; unmarked linkages are phosphodiester. Other units and linkages are bracketed, terminal groups are in braces. A string of capitals states the bases alone. [OXT] = OXT-substituted phosphotriester internucleotide linkage; d = 2'-deoxy (DNA)

Experiments:
[1] = tested on: complementary DNA target sequence; test: UV-melting temperature of complexes of acceptor probes with complementary DNA target sequence; assay type: physicochemical; settings: 2 μM oligonucleotides; for Tm: NaCl 137 mM, KCl 2.7 mM, phosphate buffer pH 7.4, 260 nm; for ΔTm (PDE - PTE): versus unsubstituted acceptor probe, pH 7.4
[2] = target: Tth DNA ligase (Thermus thermophilus, UniProt P26996); test: Ligase reaction with OXT-SAP and unsubstituted NAD+ cofactor on matched and mismatched DNA template, PAGE analysis; assay type: biochemical
Description: The ability of Tth DNA ligase to join an OXT-substituted acceptor and donor probes was assessed on a matched and mismatched DNA template in the presence of NAD+ cofactor (see Table 3 for the sequences employed). Each 20 μL reaction was performed in ligase buffer containing 50 mM Tris-HCl (pH 7.5), 10 mM MgCl2, 10 mM dithiothreitol, 25 μg/ml bovine serum albumin and 1 mM NAD+. The OXT-SAP, unsubstituted donor probe and DNA template were at equimolar 0.1 μM concentration. To prevent premature uncontrollable cleavage of the OXT groups from OXT-SAP, the preparation of the ligation mixture was performed in three steps.
First, a binary template-donor complex was prepared by mixing the DNA template and donor strands in ligation buffer, heating the mixture at 95° C. for 2 min, slowly cooling to 4° C. over 15 min, and keeping mixture at 4° C. for 1 hour.
Second, the OXT-SAP was added to the mixture and allowed to stay at 4° C. for 12 hours.
Third, a solutions of NAD+ in ligation buffer was added and ligation was initiated by adding 2 units of Tth DNA ligase to reaction mixture. Ligation proceeded at room temperature for 1 hr and analyzed by PAGE on TBE-Urea denaturing 15% gel (FIG. 12).

[3] = target: T1, T4 DNA ligase (Enterobacteria phage T4, UniProt P00970); assay type: biochemical, bacteriophage T4
T1 construct: purchased New England Biolabs

[4] = Thermal conversion of 2′,3′-substituted ATP to unsubstituted ATP in ligase buffer at 95° C. (HPLC); assay type: physicochemical; settings: 1 mM 2′,3′-substituted ATP
Description: The reactions were monitored by analysis of the aliquot of incubated mixture by reverse-phase and anion-exchange HPLC.

Tth DNA ligase, sequence (P26996 whole entry): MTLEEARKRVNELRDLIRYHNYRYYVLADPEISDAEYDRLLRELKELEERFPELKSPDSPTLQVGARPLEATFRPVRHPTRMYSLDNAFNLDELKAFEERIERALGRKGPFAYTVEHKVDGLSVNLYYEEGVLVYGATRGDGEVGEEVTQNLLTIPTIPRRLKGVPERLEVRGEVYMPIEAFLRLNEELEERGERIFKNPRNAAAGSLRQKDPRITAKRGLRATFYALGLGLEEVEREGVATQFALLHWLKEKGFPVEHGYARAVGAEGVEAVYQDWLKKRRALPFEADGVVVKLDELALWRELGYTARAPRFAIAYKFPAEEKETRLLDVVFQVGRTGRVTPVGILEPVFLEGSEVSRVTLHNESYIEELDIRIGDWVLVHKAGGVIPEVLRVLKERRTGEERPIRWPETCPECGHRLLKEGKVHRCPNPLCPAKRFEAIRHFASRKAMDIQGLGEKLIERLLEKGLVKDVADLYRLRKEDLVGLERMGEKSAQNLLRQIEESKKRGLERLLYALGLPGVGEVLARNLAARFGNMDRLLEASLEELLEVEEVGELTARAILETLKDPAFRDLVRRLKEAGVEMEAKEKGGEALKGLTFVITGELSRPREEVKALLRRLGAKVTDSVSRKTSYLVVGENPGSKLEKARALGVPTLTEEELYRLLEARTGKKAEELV
T1 sequence (P00970 whole entry, looked up): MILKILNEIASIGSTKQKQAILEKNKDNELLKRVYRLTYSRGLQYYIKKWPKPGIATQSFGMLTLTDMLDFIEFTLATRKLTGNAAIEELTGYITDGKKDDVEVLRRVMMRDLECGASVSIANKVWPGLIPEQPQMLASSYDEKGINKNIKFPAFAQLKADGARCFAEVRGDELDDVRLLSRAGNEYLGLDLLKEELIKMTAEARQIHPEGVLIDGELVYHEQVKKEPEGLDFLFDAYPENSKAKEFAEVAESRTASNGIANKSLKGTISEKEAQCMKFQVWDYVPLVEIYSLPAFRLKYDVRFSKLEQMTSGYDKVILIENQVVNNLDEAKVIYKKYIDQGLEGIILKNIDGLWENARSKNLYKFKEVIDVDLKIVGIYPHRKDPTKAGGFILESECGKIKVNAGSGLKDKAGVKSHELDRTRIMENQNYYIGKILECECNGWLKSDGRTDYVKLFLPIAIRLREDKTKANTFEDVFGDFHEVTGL

**Q.** With “Unsubstituted: TACTATGGTCCACACAACTATTGCT (Table 7 acceptor probe) (DNA TACTATGGTCCACACAACTATTGCT; acceptor probe, label not given here) [reference compound]” as the compound, how does the Tm [1] read?
**A.** 68.9 °C

**Q.** What does the source list for “Single OXT1: TACTATGGTCCACACAACTATTGC (OXT)T (DNA dTdAdCdTdAdTdGdGdTdCdCdAdCdAdCdAdAdCdTdAdTdTdGdC[OXT]dT)”?
**A.** Tm [1]: 67.5 °C; ΔTm (PDE - PTE) [1]: −1.4 °C

**Q.** With “unsubstituted acceptor probe: CCCTGTTCCAGCGTCGGTGTTGCGTT (Table 3) (unmodified DNA)” as the compound, how does the “formation of ligation product” value ([2]; matched template, additionally incubated 1 h at 75° C.) read?
**A.** ample formation of ligation product

**Q.** What about the “formation of ligation product” value ([2]; matched template, room temperature, 1 hr) of the same compound?
**A.** efficient formation of ligation product

**Q.** And the “formation of ligation product” value ([2]; mismatched DNA template, 120 hrs of incubation)?
**A.** a small amount of ligation product was formed

**Q.** What about the “formation of ligation product” value ([2]; mismatched DNA template, 120 hrs, additionally incubated 1 h at 75° C.) of the same compound?
**A.** substantial accumulation of ligation product

**Q.** For “Double OXT23: TACTATGGTCCACACAACTATT(OXT)G(OXT)C T (DNA dTdAdCdTdAdTdGdGdTdCdCdAdCdAdCdAdAdCdTdAdTdT[OXT]dG[OXT]dCdT)”, which Tm [1] is on record?
**A.** 65.4 °C

**Q.** And the “ΔTm (PDE - PTE)” value [1]?
**A.** −3.5 °C

**Q.** For “Double OXT12: TACTATGGTCCACACAACTATTG(OXT)C (OXT)T (DNA dTdAdCdTdAdTdGdGdTdCdCdAdCdAdCdAdAdCdTdAdTdTdG[OXT]dC[OXT]dT)”, which Tm [1] is on record?
**A.** 66.2 °C

**Q.** What about the “ΔTm (PDE - PTE)” value [1] of the same compound?
**A.** −2.6 °C

**Q.** Which Tm [1] does the source give for “Single OXT2: TACTATGGTCCACACAACTATTG(OXT)C T (DNA dTdAdCdTdAdTdGdGdTdCdCdAdCdAdCdAdAdCdTdAdTdTdG[OXT]dCdT)” here?
**A.** 66.6 °C

**Q.** What about the “ΔTm (PDE - PTE)” value [1] of the same compound?
**A.** −2.3 °C

**Q.** Which “formation of ligation product” value [3] does the source give for `Nc1ncnc2c1ncn2[C@@H]1O[C@H](COP(=O)(O)OP(=O)(O)OP(=O)(O)O)[C@@H](O)[C@H]1O` [unsubstituted ATP, ATP] here?
**A.** ample formation of 80(+)-mer ligation product

**Q.** With `Nc1ncnc2c1ncn2[C@@H]1O[C@H](COP(=O)(O)OP(=O)(O)OP(=O)(O)O)[C@@H](OC2CCCO2)[C@H]1OC1CCCO1` (stereo partly shown) [—O(THF), 2′,3′-O-bis-tetrahydrofuranyl-adenosine-5′triphosphates] as the compound, how does the “Concentration of unsubstituted ATP” value ([4]; ligase buffer pH 7.5, 5 min) read?
**A.** 2.8 µM

**Q.** What about the “Concentration of unsubstituted ATP” value ([4]; ligase buffer pH 7.5, 10 min) of the same compound?
**A.** 4.6 µM

**Q.** What about the “Concentration of unsubstituted ATP” value ([4]; ligase buffer pH 7.5, 20 min) of the same compound?
**A.** 17.3 µM

**Q.** And the “Concentration of unsubstituted ATP” value ([4]; ligase buffer pH 7.5, 45 min)?
**A.** 72.7 µM

**Q.** What about the “Concentration of unsubstituted ATP” value ([4]; ligase buffer pH 7.5, 80 min) of the same compound?
**A.** 182.2 µM
